Where only a bound is given, the exact number is not on record here.

In the first assay the target is T1, cloned human CRF1 receptors (Homo sapiens, UniProt P34998).
T1 construct: the coding region is amplified by PCR from start to stop codons; expressed in transfected cells; host or cells: 293EBNA cells (episomal vector phchCRFR, hygromycin selection); membrane homogenate
T1 sequence (P34998 24-415): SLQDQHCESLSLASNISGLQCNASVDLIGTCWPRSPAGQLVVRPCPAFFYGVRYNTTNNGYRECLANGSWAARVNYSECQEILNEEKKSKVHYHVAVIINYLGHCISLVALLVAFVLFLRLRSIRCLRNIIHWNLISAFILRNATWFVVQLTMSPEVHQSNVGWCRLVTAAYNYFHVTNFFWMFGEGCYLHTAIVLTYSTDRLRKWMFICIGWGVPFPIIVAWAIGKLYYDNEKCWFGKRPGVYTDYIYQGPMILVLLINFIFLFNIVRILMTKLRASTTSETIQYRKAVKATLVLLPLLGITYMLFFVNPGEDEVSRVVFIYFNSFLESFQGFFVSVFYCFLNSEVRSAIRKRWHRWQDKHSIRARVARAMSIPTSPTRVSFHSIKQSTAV
The experiment in a line: CRF1 receptor binding assay (inhibition of 125I-ovine-CRF binding to membranes of 293EBNA cells transfected with hCRFR1). The conditions noted are these: IC50 ranges as class symbols a-e; read-out: IC50 Range (potency of binding to CRF1 receptor). The source says:
Provided herein is an example of a CRF1 receptor binding assay that can be used for the evaluation of biological activity of compounds of the present invention. The example also includes isolation of cell membranes containing cloned human CRF1 receptors for use in the binding assay.
Messenger RNA is isolated from human hippocampus by standard techniques. The mRNA is reverse transcribed using oligo (dt) 12–18 and the coding region is amplified by PCR from start to stop codons The resulting PCR fragment is cloned into the EcoRV site of pGEMV, from whence the insert is reclaimed using XhoI+XbaI and cloned into the XhoI+XbaI sites of vector pm3ar (which contains a CMV promoter, the SV40 ‘t’ splice and early poly A signals, an Epstein-Barr viral origin of replication, and a hygromycin selectable marker). […] Cells surviving 4 weeks of selection in hygromycin are pooled, adapted to growth in suspension, and used to generate membranes for the binding assay described below. Individual aliquots containing approximately 1×10^8 of the suspended cells are then centrifuged to form a pellet and frozen.
The homogenate is centrifuged at 40,000×g for 12 min and the resulting pellet rehomogenized in 10 mL of tissue buffer. After another centrifugation at 40,000×g for 12 min, the pellet is resuspended to a protein concentration of 360 μg/ml to be used in the assay.
Binding assays are performed in 96 well plates; each well having a 300 μL capacity. […] Plates are then allowed to incubate at room temperature for 2 hours before filtering the incubate over GF/F filters (presoaked with 0.3% polyethyleneimine) using an appropriate cell harvester. Filters are rinsed 2 times with ice cold assay buffer before removing individual filters and assessing them for radioactivity on a gamma counter.
Consider `Cc1nc2c(-c3ccc(OC(F)(F)F)cc3Cl)ncnc2n(C(C)C2CC2)c1=O` (stereo not shown) [Example 1062, 4-(2-Chloro-4-trifluoromethoxy-phenyl)-8-(1-cyclopropyl-ethyl)-6-methyl-8H-pteridin-7-one], for which the IC50 was in the range of 100 to 1000 nM.

The same assay, now with this note: IC50 ranges as class symbols a-e; read-out: IC50 Range* (potency of binding to CRF1 receptor).
Regarding `CCC(C1CC1)n1c(=O)c(C)nc2c(-c3cc(Cl)c(OC)cc3C)ccnc21` (stereo not shown) [Example 452, 8-(5-Chloro-4-methoxy-2-methyl-phenyl)-4-(1-cyclopropyl-propyl)-2-methyl-4H-pyrido[2,3-b]pyrazin-3-one], the half-inhibitory concentration (IC50) was below 1 nM.

Take `CCC(COC)n1c(=O)c(C)nc2c(-c3cc(Cl)c(OC)cc3C)ccnc21` (stereo not shown) [Example 459, 8-(5-Chloro-4-methoxy-2-methyl-phenyl)-4-(1-methoxymethyl-propyl)-2-methyl-4H-pyrido[2,3-b]pyrazin-3-one]: the concentration for half-maximal inhibition (IC50) was in the range of 1 to 10 nM. Same read-out and setting: with `CCC(C1CC1)n1c(=O)c(C)nc2c(-c3cc(C)c(OC)cc3Cl)ccnc21` (stereo not shown) [Example 484, 8-(2-Chloro-4-methoxy-5-methyl-phenyl)-4-(1-cyclopropyl-propyl)-2-methyl-4H-pyrido[2,3-b]pyrazin-3-one] the figure was below 1 nM; with `CCC(COC)n1c(=O)c(C)nc2c(-c3cc(C)c(OC)cc3Cl)ccnc21` (stereo not shown) [Example 491, 8-(2-Chloro-4-methoxy-5-methyl-phenyl)-4-(1-methoxymethyl-propyl)-2-methyl-4H-pyrido[2,3-b]pyrazin-3-one], below 1 nM. Still for that read-out and setting: next, `CCC(C1CC1)n1c(=O)c(C)nc2c(-c3cc(F)c(N(C)C)cc3Cl)ccnc21` (stereo not shown) [Example 500, 8-(2-Chloro-4-dimethylamino-5-fluoro-phenyl)-4-(1-cyclopropyl-propyl)-2-methyl-4H-pyrido[2,3-b]pyrazin-3-one]: below 1 nM; `COCC(C)n1c(=O)c(C)nc2c(-c3cc(F)c(N(C)C)cc3Cl)ccnc21` (stereo not shown) [Example 506, 8-(2-Chloro-4-dimethylamino-5-fluoro-phenyl)-4-(2-methoxy-1-methyl-ethyl)-2-methyl-4H-pyrido[2,3-b]pyrazin-3-one]: 1 to 10 nM.

For the compound `CCC(COC)n1c(=O)c(C)nc2c(-c3cc(F)c(N(C)C)cc3Cl)ccnc21` (stereo not shown) [Example 507, 8-(2-Chloro-4-dimethylamino-5-fluoro-phenyl)-4-(1-methoxymethyl-propyl)-2-methyl-4H-pyrido[2,3-b]pyrazin-3-one], the IC50 is below 1 nM.

The assay is the same for the next values; noted with them: IC50 ranges, class symbols a-e; read-out: IC50 Range* (potency of binding to CRF1 receptor).
For the compound `CCCC(C)n1c(=O)c(C)nc2c(-c3ccc(Cl)cc3Cl)ccnc21` (racemic) [Example 2, (R,S)-8-(2,4-dichloro-phenyl)-2-methyl-4-(1-methyl-butyl)-4H-pyrido[2,3-b]pyrazin-3-one], the IC50 was in the range of 10 to 100 nM. Consider `CCCC(C1CC1)n1c(=O)c(C)nc2c(-c3ccc(Cl)cc3Cl)ccnc21` (racemic) [Example 5, (R,S)-4-(1-cyclopropyl-butyl)-8-(2,4-dichloro-phenyl)-2-methyl-4H-pyrido[2,3-b]pyrazin-3-one], for which the 50% inhibitory concentration (IC50) fell in the range of 1 to 10 nM.

With `COCC(C)n1c(=O)c(C)nc2c(-c3ccc(Cl)cc3Cl)ccnc21` (racemic) [Example 9, (R,S)-8-(2,4-dichloro-phenyl)-4-(2-methoxy-1-methyl-ethyl)-2-methyl-4H-pyrido[2,3-b]pyrazin-3-one], the half-maximal inhibitory concentration (IC50) was 10 to 100 nM. In the case of `CCC(COC)n1c(=O)c(C)nc2c(-c3ccc(Cl)cc3Cl)ccnc21` (racemic) [Example 10, (R,S)-8-(2,4-dichloro-phenyl)-4-(1-methoxymethyl-propyl)-2-methyl-4H-pyrido[2,3-b]pyrazin-3-one], the IC50 lay in the range of 1 to 10 nM.

For the compound `CCCC(C1CC1)n1c(=O)c(C)nc2c(-c3ccc(OC)cc3C)ccnc21` (racemic) [Example 69, (R,S)-4-(1-cyclopropyl-butyl)-8-(4-methoxy-2-methyl-phenyl)-2-methyl-4H-pyrido[2,3-b]pyrazin-3-one], the IC50 is 1 to 10 nM.

`CCCCC(CC)n1c(=O)c(C)nc2c(-c3ccc(OC)nc3C)ccnc21` (racemic) [Example 97, (R,S)-4-(1-ethyl-pentyl)-8-(6-methoxy-2-methyl-pyridin-3-yl)-2-methyl-4H-pyrido[2,3-b]pyrazin-3-one]: the half-inhibitory concentration (IC50) lay in the range of 100 to 1000 nM. Still for that read-out and setting: with `CCCC(C1CC1)n1c(=O)c(C)nc2c(-c3ccc(OC)nc3C)ccnc21` (racemic) [Example 101, (R,S)-4-(1-cyclopropyl-butyl)-8-(6-methoxy-2-methyl-pyridin-3-yl)-2-methyl-4H-pyrido[2,3-b]pyrazin-3-one] the figure was 10 to 100 nM.

As for `CCC(C)n1c(=O)c(C)nc2c(-c3ccc(OC(F)F)cc3Cl)ccnc21` (racemic) [Example 113, (R,S)-4-sec-butyl-8-(2-chloro-4-difluoromethoxy-phenyl)-2-methyl-4H-pyrido[2,3-b]pyrazin-3-one], the IC50 was 10 to 100 nM. Take `CCCC(C1CC1)n1c(=O)c(C)nc2c(-c3ccc(OC(F)F)cc3Cl)ccnc21` (racemic) [Example 117, (R,S)-8-(2-Chloro-4-difluoromethoxy-phenyl)-4-(1-cyclopropyl-butyl)-2-methyl-4H-pyrido[2,3-b]pyrazin-3-one]: the IC50 lay within 1 to 10 nM. `CCC(C)n1c(=O)c(C)nc2c(-c3ccc(Cl)cc3Cl)ncnc21` (racemic) [Example 546, (R,S)-8-sec-Butyl-4-(2,4-dichloro-phenyl)-6-methyl-8H-pteridin-7-one]: the half-maximal inhibitory concentration (IC50) lay within 100 to 1000 nM. Regarding `Cc1nc2c(-c3ccc(Cl)cc3Cl)ccnc2n(CC(C)C)c1=O` [Example 1, (R,S)-8-(2,4-dichloro-phenyl)-4-isobutyl-2-methyl-4H-pyrido[2,3-b]pyrazin-3-one], the IC50 is above 1000 nM. As for `CCCC(CCC)n1c(=O)c(C)nc2c(-c3ccc(OC)cc3Cl)ccnc21` [Example 18, (R,S)-8-(2-chloro-4-methoxy-phenyl)-2-methyl-4-(1-propyl-butyl)-4H-pyrido[2,3-b]pyrazin-3-one], the IC50 fell in the range of 1 to 10 nM. For the compound `CCCC(CCC)n1c(=O)c(C)nc2c(-c3ccc(OC)cc3Cl)ncnc21` [Example 563, 4-(2-Chloro-4-methoxy-phenyl)-6-methyl-8-(1-propyl-butyl)-8H-pteridin-7-one], the IC50 was in the range of 1 to 10 nM. Consider `CCC(C1CCC1)n1c(=O)c(C)nc2c(-c3ccc(OC)cc3Cl)ccnc21` (stereo not shown) [compound 23], for which the IC50 fell in the range of 1 to 10 nM. For the compound `COCC(C)n1c(=O)c(C)nc2c(-c3ccc(OC)cc3Cl)ccnc21` (stereo not shown) [compound 25], the half-inhibitory concentration (IC50) was in the range of 10 to 100 nM. Turning to `COCC(C)n1c(=O)c(C)nc2c(-c3ccc(OC)nc3C)ncnc21` (stereo not shown) [compound 650], the IC50 was above 1000 nM.

The assay is the same for the next values; noted with them: Potency of binding to CRF1 receptor, listed as IC50 ranges; read-out: IC50 Range*.
For the compound `CCC(COC)n1c(=O)c(C)nc2c(-c3cc(F)c(OC)cc3Cl)ccnc21` (stereo not shown) [Example 250, 8-(2-Chloro-5-fluoro-4-methoxy-phenyl)-4-(1-methoxymethyl-propyl)-2-methyl-4H-pyrido[2,3-b]pyrazin-3-one], the IC50 lay within 1 to 10 nM.

The values are drawn from patent publication US7067658B2, “Pyridino and pyrimidino pyrazinones” (Bristol-Myers Squibb Company, priority 2002, dated 2006).
